Test [1] is described as follows: (§1) In vitro cytotoxic activity against human epidermoid carcinoma of the nasopharynx (KB) tumor cell line.
Test [2] relates to KB-V (P-gp-expressing MDR KB subclone). Nature of the test: Percentage inhibition of multi drug resistant KB subclone growth expressing P-glycoprotein (KB-V) at 4 ug/mL concentration was determined. To be noted: for inhibition at 4 µg/mL: Homo sapiens, KB-V.
The nature of test [3]: In vitro cytotoxic activity against human lung carcinoma (A549) tumor cell line. Format: cell-based.
Test [4] can be described thus: In vitro cytotoxic activity against human ovarian carcinoma (1A9) tumor cell line.
Test [5] has as its system KB. The test is described as §1. It counts as functional, cell-based.

≈ marks a conversion by molar mass, not a printed value.

As a reminder, the IC50 is the concentration that inhibits the measured activity by half. Read a high IC50 as lower potency. One may read the Inhibition as the share of the control response that was lost under treatment. High values mean strong suppression, low ones little suppression. As to `COc1cc2c(c(OC)c1OC(=O)CN(C)C)-c1ccc(OC)c(=O)cc1[C@@H](NC(C)=O)CC2.O=C(O)C(O)C(O)C(=O)O`, the 50% inhibitory concentration (IC50) is 0.16 µg/mL in test [1], 0.88 µg/mL in test [3] and 0.11 µg/mL in test [4]. Besides, the Inhibition in test [2] was 4%.

By inhibition is commonly meant the drop in the measured response relative to a control, in per cent. Higher therefore signals strong suppression. In test [2], `COc1cc2c(c(OC)c1OC(=O)CN(C)C)-c1ccc(OC)c(=O)cc1[C@@H](NC(C)=O)CC2` had an inhibition at 4 µg/mL of 5%. The IC50 in test [3] was determined as 0.44 µg/mL (≈ 0.935 µM); in test [5], 0.09 µg/mL (≈ 0.191 µM); in test [4], 0.04 µg/mL (≈ 0.085 µM).

Consider `COc1cc2c(c(OC)c1O)-c1ccc(SC)c(=O)cc1[C@@H](NC(C)=O)CC2`, for which the IC50 in test [1], in test [3] and in test [4] was 0.01 µg/mL (≈ 0.0249 µM) each time. Further, in test [2], at 4 µg/mL the inhibition was 56%.

Take `COc1cc2c(c(OC)c1OC(=O)CN(C)C)-c1ccc(SC)c(=O)cc1C(NC(C)=O)CC2` (single isomer, unassigned; 5): the 50% inhibitory concentration (IC50) in test [1] was 0.02 µg/mL (≈ 0.0411 µM); in test [3], 0.05 µg/mL (≈ 0.103 µM); in test [4], 0.05 µg/mL (≈ 0.103 µM). Also, the inhibition at 4 µg/mL in test [2] was determined as 45%.

For the compound `COc1cc2c(c(OC)c1OC(=O)CN(C)C)-c1ccc(SC)c(=O)cc1C(NC(C)=O)CC2.O=C(O)C(O)C(O)C(=O)O` (single isomer, unassigned; 5a), the values for the IC50 in test [1], in test [3] and in test [4] were 0.02 µg/mL, 0.06 µg/mL and 0.01 µg/mL, respectively. This compound showed an Inhibition in test [2] of 28%.

Consider `COc1cc2c(c(OC)c1O)-c1ccc(OC)c(=O)cc1[C@@H](NC(C)=O)CC2` [2-DESMETHYLCOLCHICIN], for which the concentration for half-maximal inhibition (IC50) in test [1], in test [3] and in test [4] was 0.1 µg/mL (≈ 0.259 µM) in each case. In test [2], this compound yielded an inhibition at 4 µg/mL of 24%.

As for `COc1cc2c(c(OC)c1OC)-c1ccc(=O)c(O)cc1[C@@H](NC(C)=O)CC2` [COLCHICEINE], the half-inhibitory concentration (IC50) in test [1] turned out to be 0.003 µg/mL (≈ 0.00778 µM); in test [3] it was 0.002 µg/mL (≈ 0.00519 µM); in test [4], 0.003 µg/mL (≈ 0.00778 µM).
